The values that follow come from a melting point compilation (Tetko et al.).

Structures are written as SMILES.

Usually melting point stands for the temperature, or range, at which the solid turns liquid. In turn, `COC(=O)C(=O)CC(=O)c1ccccc1F` showed a melting point of 81 to 83 °C.

`Cc1sc(N)nc1-c1ccc2c(c1)CCCO2` registered a melting point of 209 to 211 °C.

For `Cc1cc(C)c(C)c(S(N)(=O)=O)c1C`, the melting point lay within 149 to 151 °C.

Take `Nc1ncc(Br)cc1S(=O)(=O)Cl`: the melting point is 129 to 131 °C.

Regarding `Cc1cc(C)cc(Oc2ccc(CN)cc2C)c1`, the melting point was in the range of 56 to 58 °C.

In turn, `O=C(O)c1ccncc1N1CCOCC1` showed a melting point of 201 to 203 °C.

Take `O=C(O)c1cc([N+](=O)[O-])ccc1I`: the melting point lay within 194 to 196 °C.

With `CNC(=O)CCCl`, the melting point was in the range of 63 to 65 °C.

Take `CC(C)(C)OC(=O)N1CCc2c(sc(N)c2C#N)C1`: the melting point is 202 to 204 °C.

On to `Cc1nn(-c2ccc(Cl)cc2Cl)c(C)c1CC(=O)O`, for which the melting point fell in the range of 186 to 188 °C.

Consider `COc1ccc(C(=O)O)cc1S(=O)(=O)NC(C)C`, for which the melting point was 194 to 197 °C.

`COc1cc(N)ncc1Br` came in with a melting point of 136 to 138 °C.

Consider `O=C(O)c1ccnc(-n2cncn2)c1`, for which the melting point lay within 314 to 316 °C.

Take `Nc1cncnc1N1CCCC1`: the melting point was in the range of 156 to 158 °C.

As for `O=C(O)C1COCCO1` (configuration not stated), the melting point lay within 59 to 61 °C.

In the case of `NS(=O)(=O)c1cccc2ncccc12`, the melting point was 179 to 181 °C.

`NC(CCN1CCN(Cc2ccccc2)CC1)=NO`: the melting point fell in the range of 111 to 113 °C.

For the molecule `Nc1cc(=O)[nH]c(S)n1`, the melting point was 300 to 302 °C.

`O=C(O)c1ccc([N+](=O)[O-])[nH]1`: the melting point fell in the range of 162 to 164 °C.

`NNC(=O)Cn1cnc2ccccc21`: the melting point was in the range of 108 to 110 °C.

Consider `COc1cccc(N2C(=O)NC(=O)C2=O)c1`, for which the melting point is 196 to 198 °C.

Regarding `O=[N+]([O-])c1ccc(Br)cc1F`, the melting point was in the range of 86 to 88 °C.

Take `N#CC1(N)CCN(Cc2ccccc2)CC1`: the melting point is 67 to 69 °C.

Molecule `CC(C)(C)Nc1cc(C(=O)O)c(N)cc1F` showed a melting point of 199 to 201 °C.

Consider `CCOC(=O)c1cc(Br)cc(Cl)c1N`, for which the melting point fell in the range of 49 to 51 °C.

As for `c1cnn(-c2ccc(N3CCNCC3)nn2)c1`, the melting point lay within 161 to 163 °C.

In turn, `Nc1sc2c(c1C(=O)c1ccc(Cl)cc1)CCCC2` gave a melting point of 139 to 141 °C.

For the molecule `CNS(=O)(=O)c1ccc(Cl)c(C(=O)O)c1Cl`, the melting point lay in the range of 136 to 138 °C.

`O=S(=O)(Cl)c1c(Cl)nc2ccccn12` registered a melting point of 101 to 103 °C.

`CCCc1ccc(C(=O)CCl)cc1`: the melting point was in the range of 30 to 32 °C.

Molecule `COc1ccccc1-c1cccc(N)c1` had a melting point of 66 to 68 °C.

The molecule `Clc1nc(-c2ccccn2)nc2sc(-c3ccccc3)cc12` had a melting point of 186 to 188 °C.

In the case of `O=C(NCC(F)(F)F)OCC(F)(F)F`, the melting point is 53 to 55 °C.

`Cc1ccc(S(=O)(=O)N2CC(Cc3cccc(F)c3)C2)cc1` displayed a melting point of 57 to 59 °C.

In turn, `Cc1cc(N)n(CCO)n1` returned a melting point of 48 to 52 °C.

Regarding `COc1ccc(NS(=O)(=O)c2ccc(C)c(N)c2)cc1`, the melting point is 127 to 129 °C.

As for `O=C(O)c1csc(-c2ccc3c(c2)OCCO3)n1`, the melting point lay within 199 to 201 °C.

In turn, `Cc1cc(C(=O)N2CCCCC2C)ccc1N` (configuration not stated) registered a melting point of 123 to 125 °C.

`Cc1ccc(S(=O)(=O)N2CCOCC2)cc1NC(=O)CCl`: the melting point is 76 to 78 °C.

The molecule `FC(F)(F)c1ccc(C2CCCCN2)cc1` (configuration not stated) displayed a melting point of 36 to 38 °C.

Molecule `CCN1CCN(c2ccccc2N)CC1` yielded a melting point of 39 to 43 °C.

The molecule `NC(=NO)c1ccc(COc2ccccc2F)cc1` registered a melting point of 135 to 137 °C.

Molecule `O=C(c1ccccc1)c1nccs1` displayed a melting point of 40 to 42 °C.

Consider `O=C1Nc2c(F)ccc(Cl)c2C1=O`, for which the melting point lay within 279 to 281 °C.

`O=c1c2ccc(C(F)(F)F)cc2nc2n1CCC2` yielded a melting point of 156 to 158 °C.

Take `Cn1ccnc1C(=O)c1cc(S)nc2ccccc12`: the melting point fell in the range of 250 to 252 °C.

`COc1cccc(NC(=O)CC#N)c1` registered a melting point of 154 to 156 °C.

Take `O=Cc1ccc(Br)c2cccnc12`: the melting point is 119 to 121 °C.

As for `CCn1c(S)nc2ccsc2c1=O`, the melting point lay within 286 to 288 °C.

As to `O=C(O)c1cc2c(=O)n3ccccc3nc2n1Cc1ccccc1`, the melting point fell in the range of 257 to 259 °C.

With `Nc1nc2ccccc2n1-c1ccccc1`, the melting point was 148 to 150 °C.

As for `CC(Nc1ccc(N(C)C)cc1)c1ccccn1` (configuration not stated), the melting point is 121 to 123 °C.

In the case of `Cc1nn2c(=O)cc(CCl)nc2s1`, the melting point was in the range of 210 to 212 °C.

Turning to `O=C(O)c1ccc(-c2cccs2)o1`, the melting point lay in the range of 169 to 171 °C.

Regarding `Cc1cc(C=O)cc(C)c1OCc1ccccc1Cl`, the melting point lay within 58 to 60 °C.

In turn, `Sc1n[nH]c(-c2ccccn2)n1` had a melting point of 279 to 281 °C.

In turn, `CC(=NO)c1ccc(S(=O)(=O)N(C)C)cc1` registered a melting point of 108 to 110 °C.

Consider `COc1cc(C(=O)O)ccc1OC(C)=O`, for which the melting point fell in the range of 144 to 146 °C.

In the case of `CS(=O)(=O)c1cccc(OCC(=O)O)c1`, the melting point fell in the range of 110 to 112 °C.

The molecule `Nc1ccccc1C(=O)NCC(F)(F)F` registered a melting point of 125 to 130 °C.

The molecule `NNc1ccncc1Cl` registered a melting point of 158 to 160 °C.

Molecule `Cc1cccc(C)c1Nc1nnc(SCC(=O)O)s1` came in with a melting point of 207 to 209 °C.

Molecule `Nc1cc(C(=O)N2CCCC2)ccc1Cl` gave a melting point of 137 to 139 °C.

Turning to `CCCN1C(=O)NC(=O)C1=O`, the melting point is 105 to 107 °C.

`O=S(=O)(Cl)CCOc1ccc(F)cc1` came in with a melting point of 34 to 36 °C.

For `CNC(=O)C1CN(Cc2ccccc2)CCO1` (configuration not stated), the melting point lay within 113 to 115 °C.

The molecule `CC(C)(CO)C(CN)c1ccccc1` (configuration not stated) had a melting point of 116 to 118 °C.

For the molecule `O=C(Cc1nc2ccccc2n1C(F)F)c1cccs1`, the melting point was 123 to 125 °C.

For the molecule `COC(=O)CNC(=O)CCCl`, the melting point was 59 to 61 °C.

`COC(=O)C(N)c1ccc(OC)cc1` (configuration not stated): the melting point was in the range of 59 to 61 °C.

For the molecule `CCOC(=O)/C(C#N)=C/Nc1ccccc1OCC`, the melting point was 141 to 143 °C.

In the case of `CCS(=O)(=O)c1ccccc1N1CCC(N)CC1`, the melting point was 119 to 121 °C.

For the molecule `CC(C)(C)Oc1cccc(CCC(=O)O)n1`, the melting point fell in the range of 82 to 84 °C.

With `Nc1nc(-c2ccc3c(c2)CCO3)cs1`, the melting point lay in the range of 173 to 175 °C.

As for `Cc1nnc(S)n1-c1cccc(N)c1`, the melting point is 219 to 221 °C.

The molecule `O=S(=O)(c1ccc(F)cc1)N1CCNCC1` displayed a melting point of 112 to 114 °C.

As to `CC(C)=CCSCC(N)C(=O)O` (configuration not stated), the melting point lay within 189 to 191 °C.

Turning to `O=Ic1ccccc1`, the melting point lay within 199 to 201 °C.

Turning to `O=C(O)c1ccccc1C(=O)c1ccc(Cl)c(Cl)c1`, the melting point fell in the range of 187 to 189 °C.

`NC(=O)c1ccc(Oc2ccc(C(=O)O)cc2)cc1`: the melting point was in the range of 289 to 291 °C.

The molecule `CCOC(=O)N1CCN(S(=O)(=O)Cl)CC1` showed a melting point of 67 to 69 °C.

In the case of `COC(=O)c1ncsc1S(N)(=O)=O`, the melting point was in the range of 155 to 157 °C.

Take `NC(=O)C1CNc2ccccc2N1` (configuration not stated): the melting point was 99 to 101 °C.

Turning to `O=C(O)C1(Sc2ccccc2)CCCC1`, the melting point was in the range of 65 to 67 °C.

Molecule `COC(=O)c1c[nH]nn1` returned a melting point of 139 to 141 °C.

The molecule `CC(C)N1C(=O)NC(=O)C1=O` showed a melting point of 92 to 96 °C.

Take `Nc1cc(N2CCCS2(=O)=O)ccc1Cl`: the melting point fell in the range of 139 to 141 °C.

For the molecule `O=C(O)c1cc(F)cc2nccnc12`, the melting point lay within 219 to 221 °C.

`CCS(=O)(=O)Nc1ccccc1C(=O)O`: the melting point lay in the range of 145 to 147 °C.

The molecule `O=C(O)Cc1csc(-c2cccc(F)c2)n1` showed a melting point of 124 to 126 °C.

In the case of `Cc1ccccc1Nc1nc2sc(C(=O)O)cc2s1`, the melting point lay in the range of 232 to 234 °C.

In the case of `CC(=O)Nc1cccc(C(=O)O)n1`, the melting point is 226 to 228 °C.

Regarding `CC(NC(=O)CCl)C1CC1` (configuration not stated), the melting point lay in the range of 50 to 52 °C.

`CC1(c2ccc(S(C)(=O)=O)cc2)CO1` (configuration not stated) yielded a melting point of 96 to 98 °C.

In turn, `Cc1ccc(NC(=O)C(C)C)cc1N` yielded a melting point of 160 to 162 °C.

As for `CN(C)CCN1CC(C(=O)O)CC1=O` (configuration not stated), the melting point is 162 to 164 °C.

Molecule `CCOC(=O)Cc1nc2cc(Cl)ccc2s1` displayed a melting point of 79 to 81 °C.

`NC(=O)c1cc(F)ccc1Br` displayed a melting point of 152 to 154 °C.

For the molecule `ClCc1coc(-c2ccc(Cl)cc2)n1`, the melting point was in the range of 91 to 93 °C.

In the case of `O=C(O)C1(c2ccc(F)cc2)CCCCC1`, the melting point lay within 137 to 139 °C.

Take `O=C(CCCl)NC(=O)NCC(F)(F)F`: the melting point fell in the range of 145 to 147 °C.

`c1cc(C2CCCNC2)[nH]n1` (configuration not stated) gave a melting point of 74 to 76 °C.

As to `CN1CCN(c2ccc(C#N)cn2)CC1`, the melting point lay within 67 to 69 °C.

`COc1ccc(C(=O)N2CCCC2)cc1N` displayed a melting point of 137 to 139 °C.

`O=Cc1cc(-c2ccccc2)cs1` showed a melting point of 63 to 65 °C.

`CC(C)n1c(Cl)nnc1-c1ccccc1` gave a melting point of 129 to 131 °C.

As to `Cn1ccc(S(=O)(=O)NCC2(N)CCCCC2)c1`, the melting point lay within 94 to 96 °C.

In turn, `CCCCOc1c(Cl)cc(C(=O)O)cc1OCC` registered a melting point of 89 to 91 °C.

For the molecule `Cc1cc2c(cc1Br)NCC(C)O2` (configuration not stated), the melting point fell in the range of 93 to 95 °C.

Consider `O=C(O)c1cccc(Nc2ccccc2)c1`, for which the melting point lay in the range of 129 to 131 °C.

As for `CCOc1cc(Br)c([N+](=O)[O-])cc1OCC`, the melting point was in the range of 62 to 64 °C.

Regarding `NC(=O)c1ccccc1I`, the melting point lay within 183 to 185 °C.

In turn, `COCCNc1ccc(C(F)(F)F)cn1` gave a melting point of 77 to 79 °C.

Turning to `Nc1ncon1`, the melting point was in the range of 104 to 106 °C.

Take `[N-]=[N+]=NC(C(N)=O)c1ccc(F)cc1` (configuration not stated): the melting point fell in the range of 127 to 129 °C.

Take `Nc1ccc(CCn2cc(Br)cn2)cc1`: the melting point fell in the range of 65 to 67 °C.

In turn, `CN(C)CC(O)Cn1cc(N)cn1` (configuration not stated) displayed a melting point of 68 to 70 °C.

`O=C(O)C1CCN(c2cccc(Br)c2)C1=O` (configuration not stated) yielded a melting point of 144 to 146 °C.

For the molecule `O=C(O)CCSc1ccc2c(c1)OCCO2`, the melting point was in the range of 87 to 89 °C.

`Cc1cc(C)c2c(c1)NC(=O)C2=O` yielded a melting point of 233 to 235 °C.

The molecule `Nc1ccc(C=O)cc1[N+](=O)[O-]` had a melting point of 173 to 175 °C.

`O=[N+]([O-])c1cc(NS(=O)(=O)c2ccc3c(c2)OCCCO3)ccc1F` had a melting point of 145 to 147 °C.
